Data reported in paper doi:10.1101/2022.07.05.498881v1 (biorxiv, 2022).
Where two headings read alike, the source gives them in different places.

Biological target: T1, SARS-CoV-2 MPro (main protease, 3CL protease, Nsp5) (Severe acute respiratory syndrome coronavirus 2, UniProt P0DTD1)
T1 construct: gene rep
Assay: fluorogenic NSP7 peptide cleavage, […] h preincubation, […] °C
Assay type: biochemical

Molecule	IC50	IC50 (pH 7.4, 0.05% Tween-20, 1 mM DTT, substrate 12.7 μM (Km), DMSO stock, possibly covalent warhead, read-out: IC50[DMSO])
O=Cc1cncc(C(=O)N2CCCC2c2cccc3ccccc23)c1 (centres unmarked) ['0292]	100 µM	–
N#CC(C(=O)c1cccnc1)c1cc(F)cc(F)c1 (centres unmarked) ['0431]	50 µM	–
CC1(Cc2ccc(F)cc2)CCCN1c1ncc(C=O)cn1 (centres unmarked) ['0892]	140 µM	–
Cc1noc(CCCOc2c(C)cc(Br)cc2C=O)n1 ['2961]	100 µM	–
O=Cc1ncc(Br)cc1OCc1ccc2c(c1)COC2 ['3620]	55 µM	–
O=Cc1ccc(Br)cc1OCc1ccc(Cl)c([N+](=O)[O-])c1 ['4218]	> 200 µM	–
N#CC(C(=O)c1ccc([N+](=O)[O-])o1)c1cccnc1 (centres unmarked) ['5103]	20 µM	–
O=Cc1cnc(N2CC(c3nc4ccccc4[nH]3)C2)nc1 ['5156]	80 µM	–
O=C1CN(Cc2ccc(F)cc2)C(=O)N1c1cncc2ccccc12 ['5548]	30 µM	–
O=C1N[C@@]2(CCc3ccccc32)C(=O)N1c1cncc2ccccc12 ['6111]	25 µM	–
O=Cc1ncc(Br)cc1OCc1cc(Cl)cc(Br)c1 ['6117]	7 µM	–
N#Cc1ccc(Br)c(COc2cc(Br)cnc2C=O)c1 ['6690]	2 µM	–
Cc1c(C(=O)C(C#N)C(=O)Nc2ccccc2)nnn1-c1ccccc1 (centres unmarked) ['6792]	100 µM	–
O=Cc1ncc(Br)cc1OCc1ccc(Cl)c([N+](=O)[O-])c1 ['7021]	1 µM	–
O=Cc1ncc(Br)cc1OCc1ccc2ccccc2c1 ['7356]	26 µM	–
O=Cc1ncc(Br)cc1OCc1cc(Br)ccc1Cl ['8252]	6 µM	–
O=Cc1ncc(Br)cc1OCc1cccc([N+](=O)[O-])c1 ['9112]	35 µM	–
O=Cc1ncc(Br)cc1OCc1ccc(Cl)c(Br)c1 ['9121]	6 µM	–
Cc1ccc(COc2cc(Br)cnc2C=O)cc1[N+](=O)[O-] ['9218]	12 µM	–

Molecule	IC50	IC50 (pH 7.4, 0.05% Tween-20, 1 mM DTT, substrate 12.7 μM (Km), DMSO stock, possibly covalent warhead, read-out: IC50[DMSO])
O=Cc1ncc(Br)cc1OCc1cccc([N+](=O)[O-])c1Cl ['9220]	33 µM	–
O=Cc1ncc(Br)cc1OCc1ccc(Cl)cc1 ['9313]	22 µM	–
C[C@H]1CN(C(=O)Nc2cncc3ccccc23)Cc2ccccc2O1 [SG-0001]	55 µM	–
COc1ccc(Br)cc1C(=O)C(=O)Nc1cncc(C)c1 [Z1355254448]	110 µM	–
CSc1ccncc1NC(=O)C(=O)c1ccc(F)cc1 [Z1669286714]	110 µM	–
Cn1cccc1C(=O)C(=O)Nc1cnccc1Oc1ccccc1 [Z2195811405]	~200 µM	–
O=C1CCN(Cc2cccs2)C(=O)N1Cc1ccc[nH]c1=O [Z3535317212]	29 µM	–
CC1(C)CN(C(=O)Nc2cncc3ccccc23)Cc2cc(Br)ccc2O1 [Z4924562413]	13 µM	–
O=C1NC(c2cccc3ccccc23)C(=O)N1c1cncc2ccccc12 (centres unmarked) [Z4929615577]	10 µM	–
CC1CCC2(NC(=O)N(c3cncc4ccccc34)C2=O)c2ccccc21 (centres unmarked) [Z4929616137]	8 µM	–
O=C(Cc1cncc2ccccc12)N1CCOc2ccc(Cl)cc2C1 [Z4946671001]	5 µM	–
Cc1ccc(F)cc1C(=O)C(=O)Nc1cncc(Br)c1C [Z5420225795]	40 µM	–
COc1cc(C=O)c(OS(=O)(=O)CC2CCCCC2)cc1OC [ZINC271072260]	143 µM	–
Cc1noc(C)c1CCCNc1nc(-c2ccncc2)nc2ccccc12 [ZINC301553312]	63 µM	–
COC(=O)c1cc(C#N)c(=O)n(Cc2cccc(F)c2Cl)c1 [ZINC338540162]	30 µM	–
O=C(Cc1cccnc1)N(Cc1ccccn1)c1ccc(Cl)cc1 [ZINC346371112]	98 µM	–
CC1CN(C(=O)CCn2cc(Br)ccc2=O)Cc2ccccc2O1 (centres unmarked) [ZINC553840273]	88 µM	–
Cc1cc(C(=O)C(=O)Nc2cnccc2F)ccc1F [ZINC5420738300]	160 µM	–
ZINC795258204	–	177 µM
